One assay deals with A549 cells. Description: CCK-8 cell viability, A549. The note with it: Homo sapiens; A549 (wild-type and k-ras), CCK-8; read-out: Cellular Antiproliferative Activity (IC50, μM) A549. In kind it is cell-based. The method, then:
(§1) All the cell viability assays were performed according to the CCK-8 method. The cells were seeded at a density of 5 to 8 × 10^4 cells/mL in 96-well plates in growth medium supplemented with 10% serum at 37 °C with 5% CO2 for one day. After 12 h of incubation, 100 μL of medium was removed, and 100 μL of sample solution with different concentrations of inhibitor was added and then the cells were incubated for 48 or 72 h. Subsequently, 10 μL of CCK-8 reagent (Biotool Company, Kirchberg, Switzerland, 5.0 mg/mL) dissolved in phosphate-buffered saline (PBS) was added and the cells were incubated for another 4 h. The absorbance was read at 450 nm with a microplate reader (Thermo Fisher Scientific, Waltham, MA, USA). The data were calculated using GraphPad Prim version 5.0.

A further assay has as its system H1975 cells. Nature of the assay: Intracellular ROS generation (DCFH-DA), H1975. In kind it is cell-based, human. The note with it: H1975, 24 h. The method, then:
(§2) The human H1975 and A431 cells at a density of approximately 2 × 10^5 cells/well were plated in a 6-well plate and then treated with different concentrations of inhibitors for 24 h. Then the cells were harvested, resuspended in 1 mL of DCFH-DA ([…]), and the levels of ROS were determined by flow cytometry (Becton-Dickinson, Franklin Lakes, NJ, USA).

For assay [1], the system named is A431 cells. Description: Wound healing and transwell assays, A431. The format is cell-based, human. The method, then:
The cancer cells were cultured in 6-well plates for 48 h at 37 °C. Wounds were created in the cell monolayer and washed with PBS to remove cell debris, then the cells were treated with different concentrations of inhibitor for 48 h. After that, the dead cells were washed away with PBS, and the images were taken by the fluorescence microscope (OLYMPUS).
Cell migration assay was evaluated by using Boyden chambers containing a transwell membrane filter with an 8 μm size pore (Corning Costa Corp, Cambridge, MA, USA). Prior to the invasion assay, the filter membrane was coated with 60 μL of Matrigel (BD Biosciences, Billerica, MA, USA) at a 1:8 dilution and rehydrated by adding […] serum-free medium to the apical side of the chamber at 37 °C for 0.5 h. The cells (2 × 10^5 cells/well for invasion assay) were seeded to the apical side of the chamber with 200 μL medium with different concentrations of inhibitors, and the basolateral side of the chamber was filled with 600 μL medium containing 10% FBS. After 24 h at 37 °C, the cells adherent to the upper surface of the filter were swept by cotton swabs, then fixed with methanol, stained with crystal violet, and the cells were counted under a microscope in five random fields, irrespective of staining intensity. The images were taken by the fluorescence microscope (OLYMPUS).

The subject of a further assay is HCC827 cells. Description: CCK-8 cell viability, HCC827. The format is cell-based. The following applies: Homo sapiens; HCC827 (EGFR del E746_A750), CCK-8; read-out: Cellular Antiproliferative Activity (IC50, μM) HCC827. The method, then:
as §1

A further assay addresses T1, wild-type EGFR (Homo sapiens, UniProt P00533).
T1 construct: purchased Promega Corporation V3831
Nature of the assay: EGFR kinase enzymatic assay (ADP-Glo), wild-type. The format is biochemical. The following applies: read-out: EGFR (IC50, nM) WT. The method, then:
(§3) The experiments were performed according to the instructions of the manufacturer. […] The test was performed in a 384-well plate, and includes the major steps below: (1) perform a 5 μL kinase reaction using 1× kinase buffer (e.g., 1× reaction buffer A); (2) incubate at room temperature for 60 min; (3) add 5 μL of ADP-Glo™ Reagent to stop the kinase reaction and deplete the unconsumed ATP, leaving only ADP and a very low background of ATP; (4) incubate at room temperature for 40 min; (5) add 10 μL of Kinase Detection; (6) reagent to convert ADP to ATP and introduce luciferase and luciferin to detect ATP; (7) incubate at room temperature for 30 min; (8) plate was measured on TriStar® LB942 Multimode Microplate Reader (BERTHOLD TECHNOLOGIES GmbH & Co. KG., Bad Wildbad, Germany) to detect the luminescence (Integration time 0.5–1 s). Curve fitting and data presentations were performed using GraphPad Prism version 5.0 (GraphPad Software, Inc.).
Background: ADP-Glo turns the ADP formed in a reaction into a luminescent signal.

Assay [2] relates to A431 cells. Description: Intracellular ROS generation (DCFH-DA), A431. In kind it is cell-based, human. The note with it: A431, 24 h. The method, then:
as §2

In the next assay the target is T2, EGFR L858R/T790M (Homo sapiens, UniProt P00533, L858R/T790M).
T2 construct: purchased Promega Corporation V5324
Description: EGFR kinase enzymatic assay (ADP-Glo), L858R/T790M mutant. The format is biochemical. The method, then: as §3, with “Concentrations consisting of suitable levels from 0.1 to 100 nM were used for all of the tested compunds. The experiments” for “The experiments”

One may read the IC50 as the point on the concentration scale where inhibition reaches its midpoint. `C=CC(=O)Nc1cccc(Nc2nc(Nc3ccc(CN4CCOCC4)cc3)ncc2Cl)c1` [DY3002, N-(3-((5-chloro-2-(4-((1-morpholino)methyl)phenylamino)-4-pyrimidinyl)amino)phenyl)acrylamide]: the IC50 with A549 cells was found to be 4.45 µM; with HCC827 cells, 0.0104 µM; at wild-type EGFR it was 449 nM; against EGFR L858R/T790M (EGFR L858R/T790M, ADP-Glo kinase assay) it was 0.71 nM. For the same compound, the “effect on ROS generation” value with H1975 cells and in the assay on A431 cells [2] was “effectively inhibited ROS generation” each time. Further, the “inhibition of cell migration” value with A431 cells [1] was “only moderately interfered”. Further, the “SI(WT:L858R/T790M)” value on EGFR L858R/T790M (selectivity index, IC50 WT / IC50 L858R/T790M) was found to be 632.0.

These data come from publication PMC6274483, “Novel Selective and Potent EGFR Inhibitor that Overcomes T790M-Mediated Resistance in Non-Small Cell Lung Cancer” (Molecules, 2016).
